Experimental data taken from ChEMBL document CHEMBL4330140, “Novel human adenosine receptor antagonists based on the 7-amino-thiazolo[5,4-d]pyrimidine scaffold. Structural investigations at the 2-, 5- and 7-positions to enhance affinity and tune selectivity” (Bioorg Med Chem Lett, 2019).
pIC50, pKi: −log10 of the molar value.

Experiments:
[1] = molecular target: T1, Adenosine receptor A1 (Homo sapiens, UniProt P30542); assay: Displacement of [3H]CCPA from human adenosine A1 receptor expressed in CHO cells after 3 hrs by scintillation counting method; assay type: cell-based
T1 sequence (P30542 whole entry): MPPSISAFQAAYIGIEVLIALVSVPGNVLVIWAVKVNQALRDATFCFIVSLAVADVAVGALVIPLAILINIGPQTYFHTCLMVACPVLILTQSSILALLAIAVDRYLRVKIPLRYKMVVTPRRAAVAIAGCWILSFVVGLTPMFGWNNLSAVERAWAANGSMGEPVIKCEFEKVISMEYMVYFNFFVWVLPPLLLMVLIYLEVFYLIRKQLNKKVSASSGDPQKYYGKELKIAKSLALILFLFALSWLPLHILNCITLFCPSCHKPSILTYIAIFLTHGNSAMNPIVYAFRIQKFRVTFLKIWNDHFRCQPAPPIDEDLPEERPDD

[2] = molecular target: T2, Adenosine receptor A2a (Homo sapiens, UniProt P29274); assay: Displacement of [3H]NECA from human adenosine A2A receptor expressed in CHO cells after 3 hrs by scintillation counting method; assay type: cell-based
[3] = molecular target: T3, Adenosine receptor A3 (Homo sapiens, UniProt P0DMS8); assay: Displacement of [3H]HEMADO from human adenosine A3 receptor expressed in CHO cells after 3 hrs by scintillation counting method; assay type: cell-based
T3 sequence (P0DMS8 whole entry): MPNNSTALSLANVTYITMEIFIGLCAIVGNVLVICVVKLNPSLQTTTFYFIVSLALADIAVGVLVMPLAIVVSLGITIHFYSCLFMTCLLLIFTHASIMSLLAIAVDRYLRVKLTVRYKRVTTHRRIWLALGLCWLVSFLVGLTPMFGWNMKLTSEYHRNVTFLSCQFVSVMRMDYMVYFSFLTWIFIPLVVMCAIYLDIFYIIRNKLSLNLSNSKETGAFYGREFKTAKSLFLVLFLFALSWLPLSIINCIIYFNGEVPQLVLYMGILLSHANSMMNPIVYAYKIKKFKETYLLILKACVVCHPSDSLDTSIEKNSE

[4] = organism: Homo sapiens; assay: Selectivity ratio of Ki for displacement of [3H]CCPA from human adenosine A1 receptor expressed in CHO cells to Ki for displacement of [3H]NECA from human adenosine A2A receptor expressed in CHO cells; assay type: cell-based
[5] = organism: Homo sapiens; assay: Selectivity ratio of Ki for displacement of [3H]HEMADO from human adenosine A3 receptor expressed in CHO cells to Ki for displacement of [3H]NECA from human adenosine A2A receptor expressed in CHO cells; assay type: cell-based
[6] = molecular target: T4, Adenosine receptor A2b (Homo sapiens, UniProt P29275); assay: Antagonist activity at human adenosine A2B receptor expressed in CHO cells assessed as inhibition of NECA-induced increase in cAMP accumulation preincubated for 10 mins followed by NECA addition by GloSensor cAMP assay; assay type: functional, cell-based
T4 sequence (P29275 whole entry): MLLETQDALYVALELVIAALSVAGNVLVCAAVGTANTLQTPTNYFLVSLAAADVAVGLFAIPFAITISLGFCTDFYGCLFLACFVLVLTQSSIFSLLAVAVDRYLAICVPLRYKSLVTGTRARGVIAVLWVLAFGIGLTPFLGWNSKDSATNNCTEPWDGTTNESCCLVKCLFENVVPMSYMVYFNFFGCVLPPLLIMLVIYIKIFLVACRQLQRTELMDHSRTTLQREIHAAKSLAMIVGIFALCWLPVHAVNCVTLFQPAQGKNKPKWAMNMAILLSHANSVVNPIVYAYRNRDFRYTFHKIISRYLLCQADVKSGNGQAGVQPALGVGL

[7] = molecular target: T2, Adenosine receptor A2a; assay: Antagonist activity at human adenosine A2A receptor expressed in CHO cells assessed as inhibition of NECA-induced increase in cAMP accumulation preincubated for 10 mins followed by NECA addition by GloSensor cAMP assay; assay type: functional, cell-based
[8] = molecular target: Adenosine receptors; A1 & A3 (Homo sapiens) (UniProt P30542+P0DMS8); assay: Selectivity ratio of Ki for displacement of [3H]CCPA from human adenosine A1 receptor expressed in CHO cells to Ki for displacement of [3H]HEMADO from human adenosine A3 receptor expressed in CHO cells; assay type: cell-based
[9] = organism: Homo sapiens; assay: Selectivity ratio of Ki for [3H]NECA from human adenosine A2A receptor expressed in CHO cells to Ki for displacement of [3H]HEMADO from human adenosine A3 receptor expressed in CHO cells; assay type: cell-based

T2 sequence (P29274 whole entry): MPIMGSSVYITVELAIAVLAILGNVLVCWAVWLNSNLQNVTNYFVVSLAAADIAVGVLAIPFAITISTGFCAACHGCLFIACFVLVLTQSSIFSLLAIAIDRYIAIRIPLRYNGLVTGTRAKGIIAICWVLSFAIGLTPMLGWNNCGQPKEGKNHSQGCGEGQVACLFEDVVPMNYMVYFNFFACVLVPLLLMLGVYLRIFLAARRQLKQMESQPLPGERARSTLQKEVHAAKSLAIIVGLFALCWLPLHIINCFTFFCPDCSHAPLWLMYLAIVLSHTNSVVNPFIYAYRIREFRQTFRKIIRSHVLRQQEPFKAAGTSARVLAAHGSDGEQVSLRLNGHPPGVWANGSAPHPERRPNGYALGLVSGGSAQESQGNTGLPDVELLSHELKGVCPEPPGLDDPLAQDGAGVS

| pKi [1] | pKi [2] | pKi [3] | pIC50 [6] | pIC50 [7] | Ratio Ki [8] | Compound | Ratio Ki [4] | Ratio Ki [5] | Ratio Ki [9] |
| --- | --- | --- | --- | --- | --- | --- | --- | --- | --- |
| 6.65 | 6.94 | 7.33 | < 4.52 | – | – | COc1ccc(-c2nc(N)c3nc(-c4ccccc4)sc3n2)cc1 | 1.9 | 0.4 | – |
| 7.23 | 8.30 | 6.72 | < 4.52 | 6.20 | – | Nc1nc(-c2cccc(O)c2)nc2sc(-c3ccccc3)nc12 | 11.7 | 38 | – |
| 7.34 | 8.63 | 7.86 | < 4.52 | – | – | Cc1ccc(-c2nc(N)c3nc(-c4ccco4)sc3n2)o1 | 19.4 | 5.8 | – |
| 7.11 | 8.11 | 8.45 | < 4.52 | – | – | Nc1nc(-c2ccc(CO)cc2)nc2sc(-c3ccco3)nc12 | 10.1 | 0.5 | – |
| 6.75 | 6.96 | 7.45 | < 4.52 | – | – | COc1cccc(-c2nc(N)c3nc(-c4ccccc4)sc3n2)c1 | 1.6 | 0.3 | – |
| 7.16 | 8.47 | 7.00 | < 4.52 | 6.52 | – | Nc1nc(-c2ccco2)nc2sc(-c3ccco3)nc12 | 20.3 | 29.1 | – |
| 7.54 | 7.65 | 7.60 | < 4.52 | – | – | Cc1ccc(-c2nc(N)c3nc(-c4ccccc4)sc3n2)o1 | 1.3 | 1.1 | – |
| 5.84 | < 4.52 | 7.04 | < 4.52 | – | 16 | COc1ccc(C(=O)Nc2nc(C)nc3sc(-c4ccccc4)nc23)cc1 | – | – | > 300 |
| 6.03 | 5.71 | 6.16 | < 4.52 | – | 1.3 | Cc1nc(NC(=O)c2ccccc2)c2nc(-c3ccccc3)sc2n1 | – | – | 2.8 |
| 7.47 | 6.61 | 5.58 | < 4.52 | – | 0.01 | Cc1nc(N)c2nc(-c3ccccc3)sc2n1 | 0.14 | 10.7 | 0.09 |
| 7.21 | 8.72 | 8.31 | < 4.52 | – | – | COc1cccc(-c2nc(N)c3nc(-c4ccco4)sc3n2)c1 | 32.8 | 2.6 | – |
| < 4.52 | < 4.52 | < 4.52 | < 4.52 | – | – | Cc1nc(NC(=O)c2ccc(Cl)cc2)c2nc(-c3ccccc3)sc2n1 | – | – | – |
| 5.64 | 5.40 | 7.32 | < 4.52 | – | 47.4 | O=C(Nc1nc(-c2ccccc2)nc2sc(-c3ccccc3)nc12)c1ccco1 | – | – | 83 |
| 5.83 | 6.98 | 5.92 | < 4.52 | – | 1.2 | O=C(Nc1nc(-c2ccccc2)nc2sc(-c3ccccc3)nc12)c1ccccc1 | – | – | 0.08 |
| 6.83 | 7.72 | 7.08 | < 4.52 | – | 1.76 | Nc1nc(-c2ccccc2)nc2sc(-c3ccccc3)nc12 | 7.8 | 4.4 | 0.22 |
| 7.09 | 7.09 | 8.09 | < 4.52 | – | – | Nc1nc(-c2ccc(CO)cc2)nc2sc(-c3ccccc3)nc12 | 1 | 0.1 | – |
| 7.29 | 8.79 | 7.80 | < 4.52 | 6.12 | – | Nc1nc(-c2cccc(O)c2)nc2sc(-c3ccco3)nc12 | 31.1 | 9.6 | – |
| 7.32 | 7.95 | 8.33 | < 4.52 | – | – | COc1ccc(-c2nc(N)c3nc(-c4ccco4)sc3n2)cc1 | 4.2 | 0.4 | – |
| 6.23 | 7.47 | 6.61 | < 4.52 | – | – | N#Cc1cccc(-c2nc(N)c3nc(-c4ccccc4)sc3n2)c1 | 17.7 | 7.3 | – |
| 6.58 | 6.37 | 8.40 | < 4.52 | – | 66.2 | O=C(Nc1nc(-c2ccccc2)nc2sc(-c3ccco3)nc12)c1ccco1 | – | – | 107 |
| 7.17 | 8.77 | 8.55 | < 4.52 | 6.79 | – | Nc1nc(-c2ccco2)nc2sc(-c3ccccc3)nc12 | 39.4 | 1.6 | – |
| 7.49 | 7.28 | 8.43 | < 4.52 | – | – | Nc1nc(-c2cccc(CO)c2)nc2sc(-c3ccccc3)nc12 | 0.6 | 0.07 | – |
| < 4.52 | 5.94 | 7.49 | < 4.52 | – | > 900 | O=C(Nc1nc(-c2ccccc2)nc2sc(-c3ccco3)nc12)c1ccccc1 | – | – | 35.7 |
| 7.55 | 8.68 | 9.05 | < 4.52 | – | – | Nc1nc(-c2cccc(CO)c2)nc2sc(-c3ccco3)nc12 | 13 | 0.4 | – |
| 7.48 | 8.52 | 7.82 | < 4.52 | – | 2.2 | Nc1nc(-c2ccccc2)nc2sc(-c3ccco3)nc12 | 11 | 5 | 0.2 |
| 6.99 | 8.11 | 7.21 | < 4.52 | – | – | N#Cc1cccc(-c2nc(N)c3nc(-c4ccco4)sc3n2)c1 | 13.3 | 8 | – |
